The target of this experiment is T1, recombinant human GR (Homo sapiens, UniProt P04150).
T1 construct: purchased Panvera/Invitrogen P2812 (kit P2893)
T1 sequence (P04150 1-777): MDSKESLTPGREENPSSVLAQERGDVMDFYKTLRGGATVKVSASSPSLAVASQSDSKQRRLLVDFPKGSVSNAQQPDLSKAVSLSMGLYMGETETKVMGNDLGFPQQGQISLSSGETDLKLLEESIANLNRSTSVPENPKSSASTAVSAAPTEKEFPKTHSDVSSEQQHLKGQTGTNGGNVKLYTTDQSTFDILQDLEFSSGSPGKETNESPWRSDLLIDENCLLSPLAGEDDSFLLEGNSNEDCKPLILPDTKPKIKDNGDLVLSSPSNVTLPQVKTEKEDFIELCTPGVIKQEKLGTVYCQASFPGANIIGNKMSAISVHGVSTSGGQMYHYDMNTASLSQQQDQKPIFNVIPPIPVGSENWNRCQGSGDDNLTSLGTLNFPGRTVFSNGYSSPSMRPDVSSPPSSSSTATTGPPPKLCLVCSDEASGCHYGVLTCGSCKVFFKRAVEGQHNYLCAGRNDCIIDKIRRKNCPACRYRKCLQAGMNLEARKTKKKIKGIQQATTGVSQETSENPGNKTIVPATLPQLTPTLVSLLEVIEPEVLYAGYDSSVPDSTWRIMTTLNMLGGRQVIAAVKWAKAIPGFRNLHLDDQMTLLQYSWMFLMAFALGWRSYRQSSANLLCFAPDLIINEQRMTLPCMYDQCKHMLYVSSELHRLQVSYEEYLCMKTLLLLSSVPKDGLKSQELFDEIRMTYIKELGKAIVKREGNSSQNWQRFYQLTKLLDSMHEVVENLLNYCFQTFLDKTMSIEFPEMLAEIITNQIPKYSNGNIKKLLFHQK
Briefly: Human Glucocorticoid Receptor (GR) Assay (fluorescence polarization, Panvera/Invitrogen kit). The experiment is classed as binding. The following applies: fluorescence polarization; GS Red tracer; 2 hours at room temperature; 100% control 10 μM Dexamethasone; read-out: Inhibition of GR binding, IC50. The essentials: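 Fluorescence polarization competition with recombinant GR and GS Red fluorescent ligand plus stabilizing peptide and DTT in potassium phosphate/sodium molybdate/EDTA buffer with DMSO. Incubated 2 hours at room temperature in the dark; 0% control DMSO, 100% control 10 μM dexamethasone.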

As a reminder, the IC50 is the concentration at which inhibition is half-maximal. Take `C[C@]12Cc3cnn(-c4ccc(F)nc4)c3C=C1CC[C@H]1[C@@H]3CC[C@](OC(=O)c4cocn4)(C(=O)SCF)[C@@]3(C)C[C@H](O)[C@@]12F` [Example 210, (1R,3aS,3bS,10aS,10bR,11S,12aS)-1-{[(Fluoromethyl)sulfanyl]carbonyl}-10b-fluoro-7-(6-fluoropyridin-3-yl)-11-hydroxy-10a,12a-dimethyl-1,2,3,3a,3b,4,5,7,10,10a,10b,11,12,12a-tetradecahydrocyclopenta[5,6]naphtho[1,2-f]indazol-1-yl 1,3-oxazole-4-carboxylate]: the 50% inhibitory concentration (IC50) stood at 2 nM.
Take `CNC(=O)[C@@]1(OC(=O)c2ccco2)CC[C@H]2[C@@H]3CCC4=Cc5c(cnn5-c5ccc(F)cc5)C[C@]4(C)[C@H]3[C@@H](O)C[C@@]21C` [Example 69, (1R,3aS,3bS,10aR,10bS,11S,12aS)-7-(4-Fluorophenyl)-11-hydroxy-10a,12a-dimethyl-1-(methylcarbamoyl)-1,2,3,3a,3b,4,5,7,10,10a,10b,11,12,12a-tetradecahydropcyclopenta[5,6]naphtho[1,2-f]indazol-1-yl furan-2-carboxylate]: the IC50 turned out to be 3 nM.
`COCC(=O)O[C@]1(C(=O)SCC#CCO)CC[C@H]2[C@@H]3CCC4=Cc5c(cnn5-c5ccc(F)cc5)C[C@]4(C)[C@H]3[C@@H](O)C[C@@]21C` [Example 31, (1R,3aS,3bS,10aR,10bS,11S,12aS)-7-(4-Fluorophenyl)-11-hydroxy-1-{[(4-hydroxy-but-2-yn-1-yl)thio]carbonyl}-10a,12a-dimethyl-1,2,3,3a,3b,4,5,7,10,10a,10b,11,12,12a-tetradecahydrocyclopenta[5,6]naphtho[1,2-f]indazol-1-yl methoxyacetate]: the IC50 turned out to be 4.5 nM.
The same measure for `C[C@]12Cc3cnn(-c4ccc(F)cc4)c3C=C1CC[C@@H]1[C@@H]2[C@@H](O)C[C@@]2(C)[C@H]1CC[C@]2(OC(=O)C1CC1)C(=O)SCF` [Example 38, (1R,3aS,3bS,10aR,10bS,11S,12aS)-1-{[(Fluoromethyl)thio]carbonyl}-7-(4-fluoro-phenyl)-11-hydroxy-10a,12a-dimethyl-1,2,3,3a,3b,4,5,7,10,10a,10b,11,12,12a-tetradecahydrocyclopenta[5,6]naphtho[1,2-f]indazol-1-yl cyclopropanecarboxylate]: 5.7 nM; for `Cc1ccoc1C(=O)O[C@]1(C(=O)SCCO)CC[C@H]2[C@@H]3CCC4=Cc5c(cnn5-c5ccc(F)cc5)C[C@]4(C)[C@H]3[C@@H](O)C[C@@]21C` [Example 58, (1R,3aS,3bS,10aR,10bS,11S,12aS)-7-(4-Fluorophenyl)-11-hydroxy-1-{[(2-hydroxy-ethyl)thio]carbonyl}-10a,12a-dimethyl-1,2,3,3a,3b,4,5,7,10,10a,10b,11,12,12a-tetradecahydrocyclopenta[5,6]naphtho[1,2-f]indazol-1-yl 3-methylfuran-2-carboxylate]: 5.5 nM; for `C[C@]12Cc3cnn(-c4ccc(F)nc4)c3C=C1CC[C@H]1[C@@H]3CC[C@](OC(=O)C4CC4)(C(=O)SCC#N)[C@@]3(C)C[C@H](O)[C@@]12F` [Example 207, (1R,3aS,3bS,10aS,10bR,11S,12aS)-1-{[(Cyanomethyl)sulfanyl]carbonyl}-10b-fluoro-7-(6-fluoropyridin-3-yl)-11-hydroxy-10a,12a-dimethyl-1,2,3,3a,3b,4,5,7,10,10a,10b,11,12,12a-tetradecahydrocyclopenta[5,6]naphtho[1,2-f]indazol-1-yl cyclopropanecarboxylate]: 3.3 nM.
For the molecule `CC(=O)OCC(=O)CSC(=O)[C@@]1(OC(=O)c2ccco2)CC[C@H]2[C@@H]3CCC4=Cc5c(cnn5-c5ccc(F)cc5)C[C@]4(C)[C@H]3[C@@H](O)C[C@@]21C` [Example 87, (1R,3aS,3bS,10aR,10bS,11S,12aS)-1-({[3-(Acetyloxy)-2-oxopropyl]sulfanyl}carbonyl)-7-(4-fluorophenyl)-11-hydroxy-10a,12a-dimethyl-1,2,3,3a,3b,4,5,7,10,10a,10b,11,12,12a-tetradecahydrocyclopenta[5,6]naphtho[1,2-f]indazol-1-yl furan-2-carboxylate], the IC50 is 5.3 nM.
`COCC(=O)O[C@]1(C(=O)SCF)CC[C@H]2[C@@H]3CCC4=Cc5c(cnn5-c5ccc(F)nc5)C[C@]4(C)[C@@]3(F)[C@@H](O)C[C@@]21C` [Example 206, (1R,3aS,3bS,10aS,10bR,11S,12aS)-1-{[(Fluoromethyl)sulfanyl]carbonyl}-10b-fluoro-7-(6-fluoropyridin-3-yl)-11-hydroxyl-1,2,3,3a,3b,4,5,7,10,10a,10b,11,12,12a-tetradecahydrocyclopenta[5,6]naphtho[1,2-f]indazol-1-yl methoxyacetate]: the IC50 worked out at 2.5 nM.
To `C[C@]12Cc3cnn(-c4ccc(F)cc4)c3C=C1CC[C@@H]1[C@@H]2[C@@H](O)C[C@@]2(C)[C@H]1CC[C@]2(OC(=O)c1nccs1)C(=O)SCC#N` [Example 39, (1R,3aS,3bS,10aR,10bS,11S,12aS)-1-{[(Cyanomethyl)thio]carbonyl}-7-(4-fluorophenyl)-11-hydroxy-10a,12a-dimethyl-1,2,3,3a,3b,4,5,7,10,10a,10b,11,12,12a-tetradecahydropcyclopenta[5,6]naphtho[1,2-f]indazol-1-yl 1,3-thiazole-2-carboxylate] belongs 3.3 nM.
On to `C[C@]12Cc3cnn(-c4ccc(F)cc4)c3C=C1CC[C@@H]1[C@@H]2[C@@H](O)C[C@@]2(C)[C@H]1CC[C@]2(OC(=O)c1ccoc1)C(=O)SCF` [Example 51, (1R,3aS,3bS,10aR,10bS,11S,12aS)-1-{[(Fluoromethyl)thio]carbonyl}-7-(4-fluoro-phenyl)-11-hydroxy-10a,12a-dimethyl-1,2,3,3a,3b,4,5,7,10,10a,10b,11,12,12a-tetradecahydrocyclopenta[5,6]naphtho[1,2-f]indazol-1-yl furan-3-carboxylate], for which the IC50 amounted to 6.9 nM.
With `COCSC(=O)[C@@]1(OC(=O)c2ccco2)CC[C@H]2[C@@H]3CCC4=Cc5c(cnn5-c5ccc(F)cc5)C[C@]4(C)[C@H]3[C@@H](O)C[C@@]21C` [Example 93, (1R,3aS,3bS,10aR,10bS,11S,12aS)-7-(4-Fluorophenyl)-11-hydroxy-1-{[(methoxymethyl)sulfanyl]carbonyl}-10a,12a-dimethyl-1,2,3,3a,3b,4,5,7,10,10a,10b,11,12,12a-tetradecahydrocyclopenta[5,6]naphtho[1,2-f]indazol-1-yl furan-2-carboxylate], the IC50 was 5.6 nM.
For “(1R,3aS,3bS,10aR,10bS,11S,12aS)-1-{[(Cyanomethyl)sulfanyl]carbonyl}-7-(4-fluorophenyl)-11-hydroxy-10a,12a-dimethyl-1,2,3,3a,3b,4,5,7,10,10a,10b,11,12,12a-tetradecahydrocyclopenta[5,6]naphtho[1,2]-indazol-1-yl 2-methyltetrahydrofuran-2-carboxylate [Example 132]”, the IC50 was found to be 4 nM.

For the origin of these results see patent publication US8163724B2, “Glucocorticosteroids, processes for their preparation, pharmaceutical compositions containing them and their use in therapy” (AstraZeneca AB, priority 2007, dated 2012).
